Experimental data reported in ChEMBL document CHEMBL3046926, “Molecular properties prediction, synthesis, and diuretic activity of phenoxy acetic acid bearing pyrazolines” (2013).

Columns and labels:
[1] = tested on: Rattus norvegicus; assay: Induction of diuresis activity in Rattus norvegicus albino (rat) assessed as urinary excretion at 20 mg/kg, po measured at 5-18 hr after drug administration by standard Lipschitz method against frusemide-treated control (reference value: 0.2 no unit); type: functional, Urine
[2] = tested on: Rattus norvegicus; assay: Induction of diuresis action in Rattus norvegicus albino (rat) assessed as urinary excretion at 20 mg/kg, po measured at 5-18 hr after drug administration by standard Lipschitz method against untreated control (reference value: 1 no unit); type: functional, Urine
[3] = tested on: Rattus norvegicus; assay: Induction of diuresis activity in Rattus norvegicus albino (rat) assessed as urinary excretion at 20 mg/kg, po measured at 0-5 hr after drug administration by standard Lipschitz method against frusemide-treated control (reference value: 0.5 no unit); type: functional, Urine
[4] = tested on: Rattus norvegicus; assay: Induction of diuresis action in Rattus norvegicus albino (rat) assessed as urinary excretion at 20 mg/kg, po measured at 0-5 hr after drug administration by standard Lipschitz method against untreated control (reference value: 1 no unit); type: functional, Urine
[5] = tested on: Rattus norvegicus; assay: Induction of diuresis in Rattus norvegicus albino (rat) assessed as urinary Cl- excretion at 20 mg/kg, po measured at 5-18 hr after drug administration by standard Lipschitz method (reference value: 0.38 +/-0.011 mEq/L); type: functional, Urine
[6] = tested on: Rattus norvegicus; assay: Induction of diuresis in Rattus norvegicus albino (rat) assessed as urinary K+ excretion at 20 mg/kg, po measured at 5-18 hr after drug administration by standard Lipschitz method (reference value: 0.22 +/-0.004 mEq/L); type: functional, Urine
[7] = tested on: Rattus norvegicus; assay: Induction of diuresis in Rattus norvegicus albino (rat) assessed as urinary Na+ excretion at 20 mg/kg, po measured at 5-18 hr after drug administration by standard Lipschitz method (reference value: 0.65+/-0.006 mEq/L); type: functional, Urine
[8] = tested on: Rattus norvegicus; assay: Induction of diuresis in Rattus norvegicus albino (rat) assessed as urinary K+ excretion at 20 mg/kg, po measured at 0-5 hr after drug administration by standard Lipschitz method (reference value: 0.46 +/-0.006 mEq/L); type: functional, Urine
[9] = tested on: Rattus norvegicus; assay: Induction of diuresis in Rattus norvegicus albino (rat) assessed as urinary Na+ excretion at 20 mg/kg, po measured at 0-5 hr after drug administration by standard Lipschitz method (reference value: 0.90 +/-0.003 mEq/L); type: functional, Urine
[10] = tested on: Rattus norvegicus; assay: Induction of diuresis in Rattus norvegicus albino (rat) assessed as urinary excretion at 20 mg/kg, po measured at 5-18 hr after drug administration by standard Lipschitz method (reference value: 50.4%); type: functional, Urine
[11] = tested on: Rattus norvegicus; assay: Induction of diuresis in Rattus norvegicus albino (rat) assessed as normal saline intake at 20 mg/kg, po measured at 5-18 hr after drug administration by standard Lipschitz method (reference value: 2.50 +/-0.036 ml); type: functional
[12] = tested on: Rattus norvegicus; assay: Induction of diuresis in Rattus norvegicus albino (rat) assessed as total urinary output at 20 mg/kg, po measured at 5-18 hr after drug administration by standard Lipschitz method (reference value: 1.26 +/-0.049 ml); type: functional, Urine
[13] = tested on: Rattus norvegicus; assay: Induction of diuresis in Rattus norvegicus albino (rat) assessed as urinary Cl- excretion at 20 mg/kg, po measured at 0-5 hr after drug administration by standard Lipschitz method (reference value: 0.46 +/-0.005 mEq/L); type: functional, Urine
[14] = tested on: Rattus norvegicus; assay: Induction of diuresis in Rattus norvegicus albino (rat) assessed as urinary excretion at 20 mg/kg, po measured at 0-5 hr after drug administration by standard Lipschitz method (reference value: 98.40%); type: functional, Urine
[15] = tested on: Rattus norvegicus; assay: Induction of diuresis in Rattus norvegicus albino (rat) assessed as normal saline intake at 20 mg/kg, po measured at 0-5 hr after drug administration by standard Lipschitz method (reference value: 2.50 +/-0.036 ml); type: functional
[16] = tested on: Rattus norvegicus; assay: Induction of diuresis in Rattus norvegicus albino (rat) assessed as total urinary output at 20 mg/kg, po measured at 0-5 hr after drug administration by standard Lipschitz method (reference value: 2.46 +/-0.125 ml); type: functional, Urine

SMILES	Ratio [1]	Ratio [2]	Ratio [3]	Ratio [4]	Activity [5] [mEq/L]	Activity [6] [mEq/L]	Activity [7] [mEq/L]	Activity [8] [mEq/L]	Activity [9] [mEq/L]	Activity [10] [%]	Activity [11] [mL]	Activity [12] [mL]	Activity [13] [mEq/L]	Activity [14] [%]	Activity [15] [mL]	Activity [16] [mL]
COc1cc(C2CC(c3ccc(Cl)cc3)=NN2C(=O)c2ccc(Cl)cc2)ccc1OCC(=O)O (configuration not stated)	1.12	5.56	1.11	2.2	1.77	1.76	3.26	1.55	2.82	278	2.67	7.43	1.94	226.96	2.67	6.06
COc1cc(C2CC(c3ccc(Cl)cc3)=NN2C(=O)c2ccc(C)cc2)ccc1OCC(=O)O (configuration not stated)	1.88	9.32	1.11	2.2	2.69	2.66	4.31	0.81	1.56	466.66	2.61	12.18	0.76	223.37	2.61	5.83
NS(=O)(=O)c1cc(C(=O)O)c(NCc2ccco2)cc1Cl [FUROSEMIDE]	1	4.94	1	1.97	1.83	3.11	3.11	1.27	2.44	247.63	2.75	6.81	1.24	194.54	2.75	5.35
COc1cc(C2CC(c3ccc(Cl)cc3)=NN2C(=O)Cc2ccccc2)ccc1OCC(=O)O (configuration not stated)	0.88	4.38	0.76	1.5	1.96	1.65	2.86	0.74	1.26	219.36	2.84	6.23	0.67	156.69	2.84	4.45
COc1cc(C2CC(c3ccc(O)cc3)=NN2C(=O)c2ccc(Cl)cc2)ccc1OCC(=O)O (configuration not stated)	0.74	3.66	0.45	0.9	0.95	0.56	1.95	0.45	0.87	183.45	2.84	5.21	0.46	89.28	2.84	2.5
COc1ccc(C2=NN(C(=O)c3ccc(Cl)cc3)C(c3ccc(OCC(=O)O)c(OC)c3)C2)cc1 (configuration not stated)	0.03	0.16	0.2	0.4	0.06	0.068	0.11	0.36	0.76	8.07	2.85	0.23	0.36	42.45	2.85	1.21
COc1cc(C2CC(c3ccc(Cl)cc3)=NN2C(=O)COc2ccc(C)cc2)ccc1OCC(=O)O (configuration not stated)	1.14	5.68	1.01	2	1.68	1.87	3.13	1.32	2.61	284.96	2.86	8.15	1.36	197.55	2.86	5.65
COc1cc(C2CC(c3ccc(O)cc3)=NN2C(=O)COc2ccc(C)cc2)ccc1OCC(=O)O (configuration not stated)	0.04	0.22	0.3	0.6	0.07	0.19	0.12	0.25	0.45	11.45	2.88	0.33	0.24	62.84	2.88	1.81
COc1cc(C2CC(c3ccc(O)cc3O)=NN2C(=O)COc2ccccc2)ccc1OCC(=O)O (configuration not stated)	1.12	5.58	0.76	1.5	1.69	2.12	3.66	0.55	1.92	279.19	2.74	7.65	0.66	150	2.74	4.11
COc1cc(C2CC(c3ccccc3)=NN2C(=O)c2ccccc2O)ccc1OCC(=O)O (configuration not stated)	0.03	0.16	0.25	0.5	0.06	0.12	0.16	0.16	0.35	8.54	2.34	0.2	0.16	49.57	2.34	1.16
COc1ccc(C2=NN(C(=O)COc3ccccc3)C(c3ccc(OCC(=O)O)c(OC)c3)C2)cc1 (configuration not stated)	0.76	3.8	0.91	1.8	1.38	1.35	2.62	0.54	1.92	190.49	2.84	5.41	0.96	180.63	2.84	5.13
COc1cc(C2CC(c3ccc(Cl)cc3)=NN2C(=O)COc2ccccc2)ccc1OCC(=O)O (configuration not stated)	1.39	6.92	1.26	2.5	1.77	1.96	3.82	1.74	3.26	345.91	2.94	10.17	1.66	247.61	2.94	7.28
